For 24 molecules, IC50 results are on record in patent US10130633B2, “Compounds” (BAYER PHARMA AKTIENGESELLSCHAFT, priority 2013, dated 2018).

The pIC50 is the IC50 on a negative log10 scale, so that one unit is a factor of ten.

pIC50: −log10 of the molar value.

For one assay, the system named is HCT116 FOP control reporter cell line. In words: HCT116 FOPFlash control reporter assay (FOP control vector, non-functional TCF elements). In kind it is cell-based. The following applies: HCT116 FOP control reporter cells, 36 hours incubation, luciferase expression. An excerpt:
In a parallel approach, HCT116 cells were cotransfected with the FOP control vector and pcDNA3. The FOP vector is identical to the TOP construct, but it contains instead of functional TCF elements a randomized, non-functional sequence. For this transfection a stable transfected cell line was generated as well.
`C[C@@H](C(=O)Nc1cc(C(=O)Nc2ccc(-c3ccccc3F)nc2)ccc1OC(F)(F)F)N1CCN(C)CC1` (single isomer, unassigned) [Example 65, N-[6-(2-fluorophenyl)pyridin-3-yl]-3-{[(2S)-2-(4-methylpiperazin-1-yl)propanoyl]amino}-4-(trifluoromethoxy)benzamide or N-[6-(2-fluorophenyl)pyridin-3-yl]-3-{[(2R)-2-(4-methylpiperazin-1-yl)propanoyl]amino}-4-(trifluoromethoxy)benzamide] showed a pIC50 of no more than 4.30.
The same measure, in the same setting: with `CC(C(=O)Nc1cc(C(=O)Nc2nnc(-c3ccccc3)s2)ccc1OC(F)(F)F)N1CCOCC1` (stereo not shown) [Example 57, 3-{[2-(morpholin-4-yl)propanoyl]amino}-N-(5-phenyl-1,3,4-thiadiazol-2-yl)-4-(trifluoromethoxy)benzamide] the figure was no more than 4.30.
Still for that read-out and setting: to “N-[6-(2-fluorophenyl)pyridin-3-yl]-3-{[(2S)-2-(4-methylpiperazin-1-yl)propanoyl]amino}-4-(trifluoromethoxy)benzamide or N-[6-(2-fluorophenyl)pyridin-3-yl]-3-{[(2R)-2-(4-methylpiperazin-1-yl)propanoyl]amino}-4-(trifluoromethoxy)benzamide [Example 66]” belongs no more than 4.30.

The next assay concerns constitutive active colorectal cancer cell (CRC) Wnt pathway. The assay is described as follows: HCT116 TOPFlash cellular reporter assay (Super TopFlash luciferase), constitutive active Wnt pathway. In kind it is cell-based. The conditions noted are these: HCT116 TOP reporter cells, 36 hours incubation, luciferase expression. On the procedure:
In order to discover and characterize small molecules which inhibit the constitutive active colorectal cancer cell (CRC) Wnt pathway, a cellular reporter assay was employed. […] Stable transfectants were generated by cotransfection with pcDNA3 and selection of stable transfected cells with 1 mg/ml G418.
(In general: A reporter such as luciferase makes a cellular process visible.)
For “N-[6-(2-fluorophenyl)pyridin-3-yl]-3-{[(2S)-2-(4-methylpiperazin-1-yl)propanoyl]amino}-4-(trifluoromethoxy)benzamide or N-[6-(2-fluorophenyl)pyridin-3-yl]-3-{[(2R)-2-(4-methylpiperazin-1-yl)propanoyl]amino}-4-(trifluoromethoxy)benzamide [Example 66]”, the pIC50 was 7.96.

Another assay relates to HEK293 FOP control reporter cell line. In words: HEK293 FOP control reporter assay. It is filed as cell-based, human. The following applies: HEK293 FOP control cells, EC50 concentration of recombinant Wnt-3a, 16 hours; read-out: HEK FOP IC50. On the procedure:
Measurement of luciferase expression was done as described for the constitutive active Wnt assay.
In a parallel approach, HEK293 cells were cotransfected with the FOP control vector and pcDNA3. The FOP vector is identical to the TOP construct, but it contains instead of functional TCF elements a randomized, non-functional sequence. For this transfection a stable transfected cell line was generated as well, based on selection with Geneticin (1 mg/ml).
`C[C@@H](C(=O)Nc1cc(C(=O)Nc2ccc(-c3ccccc3F)nc2)ccc1OC(F)(F)F)N1CCN(C)CC1` (single isomer, unassigned) [Example 65, N-[6-(2-fluorophenyl)pyridin-3-yl]-3-{[(2S)-2-(4-methylpiperazin-1-yl)propanoyl]amino}-4-(trifluoromethoxy)benzamide or N-[6-(2-fluorophenyl)pyridin-3-yl]-3-{[(2R)-2-(4-methylpiperazin-1-yl)propanoyl]amino}-4-(trifluoromethoxy)benzamide]: the pIC50 is no more than 4.30.
Still for that read-out and setting: to “N-[6-(2-fluorophenyl)pyridin-3-yl]-3-{[(2S)-2-(4-methylpiperazin-1-yl)propanoyl]amino}-4-(trifluoromethoxy)benzamide or N-[6-(2-fluorophenyl)pyridin-3-yl]-3-{[(2R)-2-(4-methylpiperazin-1-yl)propanoyl]amino}-4-(trifluoromethoxy)benzamide [Example 66]” belongs no more than 4.30.

Staying with this assay, now noted: Homo sapiens, HEK293, 16 h; read-out: HEK FOP IC50.
As to `O=C(Nc1nnc(-c2ccccc2)s1)c1ccc(OC(F)F)c(NC(=O)C2(N3CCN(C4CC4)CC3)CC2)c1` [Example 38, 3-({[1-(4-cyclopropylpiperazin-1-yl)cyclopropyl]carbonyl}amino)-4-(difluoromethoxy)-N-(5-phenyl-1,3,4-thiadiazol-2-yl)benzamide], the pIC50 is no more than 4.30.
The same measure, in the same setting: to `O=C(CN1CCN(C2CC2)CC1)Nc1cc(C(=O)Nc2nnc(-c3ccccc3)s2)ccc1OC(F)F` [Example 41, 3-{[(4-cyclopropylpiperazin-1-yl)acetyl]amino}-4-(difluoromethoxy)-N-(5-phenyl-1,3,4-thiadiazol-2-yl)benzamide] belongs no more than 4.30; to `COCc1ccc(C(=O)Nc2nnc(-c3ccccc3)s2)cc1NC(=O)C1(N2CCN(C3CC3)CC2)CC1` [Example 44, 3-({[1-(4-cyclopropylpiperazin-1-yl)cyclopropyl]carbonyl}amino)-4-(methoxymethyl)-N-(5-phenyl-1,3,4-thiadiazol-2-yl)benzamide], no more than 4.30; to `CN1CCN(C2(C(=O)Nc3cc(C(=O)Nc4nnc(-c5ccccc5)s4)ccc3CS(C)(=O)=O)CC2)CC1` [Example 49, 3-({[1-(4-methylpiperazin-1-yl)cyclopropyl]carbonyl}amino)-4-[(methylsulfonyl)methyl]-N-(5-phenyl-1,3,4-thiadiazol-2-yl)benzamide], no more than 4.30.
The same measure, in the same setting: with `O=C(Nc1nnc(-c2ccccc2)s1)c1ccc(OC(F)(F)F)c(NC(=O)C2(N3CCOCC3)CC2)c1` [Example 50, 3-({[1-(morpholin-4-yl)cyclopropyl]carbonyl}amino)-N-(5-phenyl-1,3,4-thiadiazol-2-yl)-4-(trifluoromethoxy)benzamide] the figure was no more than 4.30.
On the same count and under the same terms, with `O=C(Nc1nnc(-c2ccccc2)s1)c1ccc(OC(F)(F)F)c(NC(=O)C2(N3CCN(C4CC4)CC3)CC2)c1` [Example 51, 3-({[1-(4-cyclopropylpiperazin-1-yl)cyclopropyl]carbonyl}amino)-N-(5-phenyl-1,3,4-thiadiazol-2-yl)-4-(trifluoromethoxy)benzamide] the figure was no more than 4.30; with `O=C(CN1CCN(C2CC2)CC1)Nc1cc(C(=O)Nc2nnc(-c3ccccc3)s2)ccc1OC(F)(F)F` [Example 53, 3-{[(4-cyclopropylpiperazin-1-yl)acetyl]amino}-N-(5-phenyl-1,3,4-thiadiazol-2-yl)-4-(trifluoromethoxy)benzamide], no more than 4.30; with `CC(C(=O)Nc1cc(C(=O)Nc2nnc(-c3ccccc3)s2)ccc1OC(F)(F)F)N1CCOCC1` (stereo not shown) [Example 57, 3-{[2-(morpholin-4-yl)propanoyl]amino}-N-(5-phenyl-1,3,4-thiadiazol-2-yl)-4-(trifluoromethoxy)benzamide], no more than 4.30.
In the case of `CC(C(=O)Nc1cc(C(=O)Nc2nnc(-c3ccccc3)s2)ccc1OC(F)(F)F)N1CCN(C)CC1` (stereo not shown) [Example 58, 3-{[2-(4-methylpiperazin-1-yl)propanoyl]amino}-N-(5-phenyl-1,3,4-thiadiazol-2-yl)-4-(trifluoromethoxy)benzamide], the pIC50 is no more than 4.30.
On the same count and under the same terms, to `O=C(Nc1ccc(OC(F)(F)F)c(NC(=O)C2(N3CCOCC3)CC2)c1)c1ccc(-c2ccccc2)nc1` [Example 61, N-[3-({[1-(morpholin-4-yl)cyclopropyl]carbonyl}amino)-4-(trifluoromethoxy)phenyl]-6-phenylnicotinamide] belongs no more than 4.30; to `O=C(CN1CCN(C2CC2)CC1)Nc1cc(C(=O)Nc2ccc(-c3ccccc3F)nc2)ccc1OC(F)(F)F` [Example 63, 3-{[(4-cyclopropylpiperazin-1-yl)acetyl]amino}-N-[6-(2-fluorophenyl)pyridin-3-yl]-4-(trifluoromethoxy)benzamide], no more than 4.30; to `CC(C(=O)Nc1cc(C(=O)Nc2ccc(-c3ccccc3F)nc2)ccc1OC(F)(F)F)N1CCN(C)CC1` (stereo not shown) [Example 64, N-[6-(2-fluorophenyl)pyridin-3-yl]-3-{[2-(4-methylpiperazin-1-yl)propanoyl]amino}-4-(trifluoromethoxy)benzamide], no more than 4.30.
Still for that read-out and setting: with `O=C(Nc1ccc(-c2ccccc2F)nc1)c1ccc(OC(F)(F)F)c(NC(=O)C2(N3CCN(C4CC4)CC3)CC2)c1` [Example 67, 3-({[1-(4-cyclopropylpiperazin-1-yl)cyclopropyl]carbonyl}amino)-N-[6-(2-fluorophenyl)pyridin-3-yl]-4-(trifluoromethoxy)benzamide] the figure was no more than 4.30; with `O=C(Nc1ccc(-c2ccccc2F)nc1)c1ccc(OC(F)(F)F)c(NC(=O)C2(N3CCOCC3)CC2)c1` [Example 68, N-[6-(2-fluorophenyl)pyridin-3-yl]-3-({[1-(morpholin-4-yl)cyclopropyl]carbonyl}amino)-4-(trifluoromethoxy)benzamide], no more than 4.30; with `O=C(Nc1ccc(-c2cc(F)cc(F)c2)nc1)c1ccc(OC(F)(F)F)c(NC(=O)C2(N3CCOCC3)CC2)c1` [Example 71, N-[6-(3,5-difluorophenyl)pyridin-3-yl]-3-({[1-(morpholin-4-yl)cyclopropyl]carbonyl}amino)-4-(trifluoromethoxy)benzamide], no more than 4.30.
Regarding `NC(=O)c1ccc(C(=O)Nc2ccc(-c3ccccc3F)nc2)cc1NC(=O)C1(N2CCOCC2)CC1` [Example 75, N^4-[6-(2-fluorophenyl)pyridin-3-yl]-2-({[1-(morpholin-4-yl)cyclopropyl]carbonyl}amino)terephthalamide], the pIC50 was no more than 4.30.
The same measure, in the same setting: to `Cc1ccc(C(=O)Nc2ccc(-c3ccccc3F)nc2)cc1NC(=O)C1(N2CCOCC2)CC1` [Example 76, N-[6-(2-fluorophenyl)pyridin-3-yl]-4-methyl-3-({[1-(morpholin-4-yl)cyclopropyl]carbonyl}amino)benzamide] belongs no more than 4.30; to `O=C(Nc1ccc(-c2ccccc2)cn1)c1ccc(OC(F)(F)F)c(NC(=O)C2(N3CCOCC3)CC2)c1` [Example 95, 3-({[1-(morpholin-4-yl)cyclopropyl]carbonyl}amino)-N-(5-phenylpyridin-2-yl)-4-(trifluoromethoxy)benzamide], no more than 4.30; to `CC(C(=O)Nc1cc(C(=O)Nc2ccc(-c3ccc(N)cc3)nc2)ccc1OC(F)(F)F)N1CCOCC1` (stereo not shown) [Example 111, N-[6-(4-aminophenyl)pyridin-3-yl]-3-{[2-(morpholin-4-yl)propanoyl]amino}-4-(trifluoromethoxy)benzamide], no more than 4.30.
For `CC(=O)Nc1ccc(-c2ccc(NC(=O)c3ccc(OC(F)(F)F)c(NC(=O)C(C)N4CCOCC4)c3)cn2)cc1` (stereo not shown) [Example 113, N-[6-(4-acetamidophenyl)pyridin-3-yl]-3-{[2-(morpholin-4-yl)propanoyl]amino}-4-(trifluoromethoxy)benzamide], the pIC50 is no more than 4.30.
Still for that read-out and setting: with `O=C(Nc1ccc(-c2ccccc2F)nc1)c1ccc(OC2CC2)c(NC(=O)C2(N3CCN(C4CC4)CC3)CC2)c1` [Example 136, 4-(cyclopropyloxy)-3-({[1-(4-cyclopropylpiperazin-1-yl)cyclopropyl]carbonyl}amino)-N-[6-(2-fluorophenyl)pyridin-3-yl]benzamide] the figure was no more than 4.30; with `CN1CCN(CC(=O)Nc2cc(C(=O)Nc3nnc(-c4cccc(Cl)c4)s3)ccc2OC(F)(F)F)CC1` [Example 151, N-[5-(3-chlorophenyl)-1,3,4-thiadiazol-2-yl]-3-{[(4-methylpiperazin-1-yl)acetyl]amino}-4-(trifluoromethoxy)benzamide], no more than 4.30.
